Assay results: patent US11872262B2, “Means and methods for treating bacterial infections” (VIB VZW, priority 2017, dated 2024)
Residues, ends and D or L forms follow the SMILES beside them. *: point of attachment. FITC = O=C1OC2(c3ccc(O)cc3Oc3cc(O)ccc32)c2ccc(NC(=S)*)cc21

Tests used:
E. coli O157 = format: cell-based, Escherichia coli; conditions: HPLC-grade purified peptides, E. coli O157
Protocol: The MICs of active peptides were determined via the Broth microdilution assay according to the EUCAST guideline, which were performed in 96-well polystyrene flat-bottom microtiter plates (BD Biosciences). Briefly, a single colony was inoculated into 5 mL LB medium and grown to the end-exponential growth phase in a shaking incubator at 37° C. Cultures were subsequently diluted to an OD600 of 0.002 ([…]) in fresh LB medium. 100 μL of LB medium with different concentration of peptides ranging from 100 μg/mL to 1 μg/mL were serially diluted to the sterile 96-well plate (at least 3 wells in each plate). Afterward, 100 μL of the diluted bacteria were pipetted into 96-well plates containing different concentration of peptides. In each plate, the grown bacteria with maximum concentration of carrier and medium were considered as positive and negative controls, respectively. Thereafter, 96-well plates was statically incubated overnight at 37° C. to allow bacterial growth. A multipurpose UV/VIS plate reader at OD590 nm, 1 s shaking measured the absorbance of the growth bacteria using a Perkin Elmer spectrophotometer (1420 Multilabel Counter Victor 3).

E. coli O157:H7 = format: cell-based, Escherichia coli; conditions: screening-stage peptides tested at 1, 6, 12 and 25 μg/mL
Procedure, shortened: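 Tandem-repeat aggregation-prone-region peptides from DMSO stocks were tested for growth inhibition of E. coli O157:H7 at 1, 6, 12 and 25 μg/mL.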

[1] = Biodistribution study in healthy animals; format: in vivo, mice; conditions: single dose of 10 mg/kg, IP or urinary tract
Protocol: FIG. 7: Fluorescence imaging of organs ex vivo 3 h after a single injection (10 mg/kg) of Colpeptin1.
Given these positive results, we then established the tolerance of the Swiss mice to the peptide by performing a dose escalation experiment. […] The parameters observed included body weight, food and water consumption, home cage activity and locomotion. […] Based on these observations, we tested the antibacterial efficacy of the colpeptin1 in a mouse bladder infection model. In this model, an inoculum of 50 μL of a 10^8 CFU/mL suspension of E. coli O157:H7 was delivered via the urethra to the bladder of healthy Swiss mice. 1 h post-infection, we administered a single injection of colpeptin1 at 10 mg/kg, either via the urethra (n=15) or intraperitoneally (n=15). 24 h after treatment, the animals were sacrificed and the bacterial titer in kidney, colon, bladder and ureter was determined by plating the macerated tissue (FIG. 2F-l).

| SMILES | E. coli O157 (apparent MIC in screen) (E. coli O157:H7) [µg/mL] | further results |
| --- | --- | --- |
| CC(C)C[C@H](NC(=O)CNC(=O)[C@H](CCCNC(=N)N)NC(=O)[C@@H]1CCCN1C(=O)[C@H](CCCNC(=N)N)NC(=O)[C@H](CCCNC(=N)N)NC(=O)[C@@H]1CCCN1C(=O)[C@H](CC(C)C)NC(=O)[C@H](C)NC(=O)[C@@H]1CCCN1C(=O)CNC(=O)[C@H](CC(C)C)NC(=O)CNC(=O)[C@@H](N)CCCNC(=N)N)C(=O)NCC(=O)N1CCC[C@H]1C(=O)N[C@@H](C)C(=O)N[C@@H](CC(C)C)C(=O)N1CCC[C@H]1C(=O)N[C@@H](CCCNC(=N)N)C(=O)N[C@@H](CCCNC(=N)N)C(=O)O [P2 pro2] (H-RGLGPALPRRPRGLGPALPRR-OH) |  | MIC (E. coli O157): >100 µg/mL |
| CC[C@H](C)[C@H](NC(=O)[C@H](CCCNC(=N)N)NC(=O)[C@@H]1CCCN1C(=O)[C@H](CCCNC(=N)N)NC(=O)[C@H](CCCNC(=N)N)NC(=O)[C@H](CC(N)=O)NC(=O)[C@H](CC(C)C)NC(=O)[C@@H](NC(=O)[C@H](CCCNC(=N)N)NC(=O)[C@@H](NC(=O)[C@@H](NC(=O)[C@@H](NC(=O)[C@@H](N)CCCNC(=N)N)[C@@H](C)CC)C(C)C)[C@@H](C)O)[C@@H](C)O)C(=O)N[C@H](C(=O)N[C@H](C(=O)N[C@H](C(=O)N[C@H](C(=O)N[C@@H](CC(C)C)C(=O)N[C@@H](CC(N)=O)C(=O)N[C@@H](CCCNC(=N)N)C(=O)N[C@@H](CCCNC(=N)N)C(=O)O)[C@@H](C)O)C(C)C)[C@@H](C)O)C(C)C [Peptide P125] (H-RIVTRTLNRRPRIVTVTLNRR-OH; N-terminus and C-terminus assumed) | 25 |  |
| CC(C)C[C@H](NC(=O)CNC(=O)[C@H](CCCNC(=N)N)NC(=O)[C@@H]1CCCN1C(=O)[C@H](CCCNC(=N)N)NC(=O)[C@H](CCCNC(=N)N)NC(=O)[C@H](CCC(N)=O)NC(=O)[C@H](CC(C)C)NC(=O)[C@H](C)NC(=O)[C@H](CCCNC(=N)N)NC(=O)[C@H](CC(C)C)NC(=O)[C@H](CC(C)C)NC(=O)CNC(=O)[C@@H](N)CCCNC(=N)N)C(=O)N[C@@H](CC(C)C)C(=O)N[C@@H](CC(C)C)C(=O)N[C@@H](C)C(=O)N[C@@H](CC(C)C)C(=O)N[C@@H](CCC(N)=O)C(=O)N[C@@H](CCCNC(=N)N)C(=O)N[C@@H](CCCNC(=N)N)C(=O)O [Peptide P124] (H-RGLLRALQRRPRGLLLALQRR-OH; N-terminus and C-terminus assumed) | 12 |  |
| CC(C)C[C@H](NC(=O)[C@H](C)NC(=O)[C@@H](N)CCCNC(=N)N)C(=O)N[C@@H](C)C(=O)N[C@@H](CCCNC(=N)N)C(=O)N[C@@H](C)C(=O)N[C@@H](CC(C)C)C(=O)N[C@@H](CC(C)C)C(=O)N[C@@H](CCCNC(=N)N)C(=O)N[C@@H](CCCNC(=N)N)C(=O)N1CCC[C@H]1C(=O)N[C@@H](CCCNC(=N)N)C(=O)N[C@@H](C)C(=O)N[C@@H](CC(C)C)C(=O)N[C@@H](C)C(=O)N[C@H](C(=O)N[C@@H](C)C(=O)N[C@@H](CC(C)C)C(=O)N[C@@H](CC(C)C)C(=O)N[C@@H](CCCNC(=N)N)C(=O)N[C@@H](CCCNC(=N)N)C(=O)O)C(C)C [Peptide P112] (H-RALARALLRRPRALAVALLRR-OH; N-terminus and C-terminus assumed) | 25 |  |
| CC(C)C[C@H](NC(=O)[C@H](C)NC(=O)[C@H](CCCNC(=N)N)NC(=O)[C@@H]1CCCN1C(=O)[C@H](CCCNC(=N)N)NC(=O)[C@H](CCCNC(=N)N)NC(=O)[C@H](CC(C)C)NC(=O)[C@@H](NC(=O)[C@H](C)NC(=O)[C@@H](NC(=O)[C@H](CC(C)C)NC(=O)[C@H](CC(C)C)NC(=O)[C@H](C)NC(=O)[C@@H](N)CCCNC(=N)N)[C@@H](C)O)C(C)C)C(=O)N[C@@H](CC(C)C)C(=O)N[C@H](C(=O)N[C@@H](C)C(=O)N[C@H](C(=O)N[C@@H](CC(C)C)C(=O)N[C@@H](CCCNC(=N)N)C(=O)N[C@@H](CCCNC(=N)N)C(=O)O)C(C)C)[C@@H](C)O [Peptide P16] (H-RALLTAVLRRPRALLTAVLRR-OH; N-terminus and C-terminus assumed) | 25 |  |
| CC(C)C[C@H](NC(=O)CNC(=O)[C@H](CCCNC(=N)N)NC(=O)[C@@H]1CCCN1C(=O)[C@H](CCCNC(=N)N)NC(=O)[C@H](CCCNC(=N)N)NC(=O)[C@@H](NC(=O)[C@H](CC(C)C)NC(=O)[C@H](C)NC(=O)[C@H](CC(C)C)NC(=O)CNC(=O)[C@H](CC(C)C)NC(=O)CNC(=O)[C@H](CCCNC(=N)N)NC(=S)Nc1ccc2c(c1)C(=O)OC21c2ccc(O)cc2Oc2cc(O)ccc21)C(C)C)C(=O)NCC(=O)N[C@@H](CC(C)C)C(=O)N[C@@H](C)C(=O)N[C@@H](CC(C)C)C(=O)N[C@H](C(=O)N[C@@H](CCCNC(=N)N)C(=O)N[C@@H](CCCNC(=N)N)C(=O)O)C(C)C [FITC-colpeptin1] ({FITC}-RGLGLALVRRPRGLGLALVRR-OH; N-terminus and C-terminus assumed) |  | clearance of the peptide [1]: total clearance of the peptide after 24 h; duration of distribution of fluorescent material after injection [1]: at least 3 h |
| CC(C)C[C@H](NC(=O)[C@H](CC(C)C)NC(=O)[C@H](CC(C)C)NC(=O)[C@H](CCCNC(=N)N)NC(=O)[C@@H]1CCCN1C(=O)[C@H](CCCNC(=N)N)NC(=O)[C@H](CCCNC(=N)N)NC(=O)[C@@H](NC(=O)[C@H](CC(C)C)NC(=O)[C@H](CC(C)C)NC(=O)[C@H](CO)NC(=O)[C@H](CC(C)C)NC(=O)[C@H](CCCNC(=N)N)NC(=O)[C@H](CC(C)C)NC(=O)[C@@H](N)CCCNC(=N)N)C(C)C)C(=O)N[C@@H](CO)C(=O)N[C@@H](CC(C)C)C(=O)N[C@@H](CC(C)C)C(=O)N[C@H](C(=O)N[C@@H](CCCNC(=N)N)C(=O)N[C@@H](CCCNC(=N)N)C(=O)O)C(C)C [Peptide P76] (H-RLRLSLLVRRPRLLLSLLVRR-OH; N-terminus and C-terminus assumed) | 12 |  |
